# ChEMBL document CHEMBL4613261, “Metabolic and Pharmaceutical Aspects of Fluorinated Compounds” (J Med Chem, 2020)
# Experiments:
# [1] = Drug degradation assessed as 4-[[9-[(2-fluoro-4-pyridyl)methyl]-10-oxo-9-anthryl]methyl]-1H-pyridin-2-one metabolite formation by measuring relative abundance measured after preserving compound for 6 months at 40 degreeC by LC-MS/MS analysis; format: physicochemical; settings: 4383 h
# [2] = Drug degradation in presence of 1% magnesium stearate and lactose monohydrate measured after preserving compound for 1 to 3 months at 40 degreeC by LC-MS/MS analysis; format: physicochemical; settings: read-out: Drug degradation
# [3] = biological target: T1, Alanine racemase, biosynthetic (Escherichia coli K-12, UniProt P0A6B4); assay: Substrate activity at Escherichia coli B alanine racemase assessed as 2-oxobut-3-enoic acid formation; format: ADME
# [4] = biological target: T1, Alanine racemase, biosynthetic; assay: Substrate activity at Escherichia coli B alanine racemase assessed as (2S)-6-amino-2-(((Z)-1-carboxyallylideneamino)(3-hydroxy-2-methyl-5-(phosphonooxymethyl)pyridin-4-yl)methylamino)hexanoic acid adduct formation; format: ADME
# [5] = biological target: T1, Alanine racemase, biosynthetic; assay: Substrate activity at Escherichia coli B alanine racemase assessed as (S)-6-amino-2-((E)-1-carboxy-1-((E)-(3-hydroxy-2-methyl-5-(phosphonooxymethyl)pyridin-4-yl)methyleneamino)prop-1-en-2-ylamino)hexanoic acid formation; format: ADME
# [6] = Prodrug conversion in Sprague-Dawley rat assessed as acyclovir recovery in urine at 0.1 mmol/kg, po measured over 48 hrs by HPLC analysis; format: ADME, organism-based; settings: in vivo
# [7] = Drug metabolism assessed as first order rate constant for 6-formyltryptophan formation; format: physicochemical
# [8] = Half life in rat at 10 mg/kg, iv; format: ADME, organism-based; settings: in vivo
# [9] = Volume of distribution at steady state in Sprague-Dawley rat at 0.5 mg/kg, iv administered as single dose measured after 0.083 to 48 hrs; format: ADME, organism-based; settings: in vivo, read-out: Vdss
# [10] = Volume of distribution at steady state in rhesus monkey at 0.1 mg/kg, iv administered as single dose measured after 0.083 to 48 hrs; format: ADME, organism-based, Macaca mulatta; settings: in vivo, read-out: Vdss
# [11] = Drug recovery in bile duct-cannulated rhesus monkey feces at 10 mg/kg, po administered as single dose using 14C labelled compound measured after 96 hrs; format: ADME, organism-based, Macaca mulatta; settings: in vivo
# [12] = Lipophilicity, logD of the compound; format: physicochemical; settings: octanol/water
# [13] = Drug recovery in bile duct-cannulated Sprague-Dawley rat feces at 10 mg/kg, po administered as single dose using 14C labelled compound measured after 48 hrs; format: ADME, organism-based; settings: in vivo
# [14] = Elimination half life in human at 25 to 1200 mg, po administered as suspension measured after 5 to 816 hrs by HPLC-MS/MS analysis; format: ADME, organism-based; settings: in vivo, read-out: beta t1/2
# [15] = Photodegradation of compound in deionized H20 at 10 uM by HPLC analysis; format: physicochemical; settings: deionized water
# [16] = Volume of distribution in human at 0.25 mg, iv administered as single dose measured up to 168 hrs; format: ADME, organism-based; settings: in vivo
# [17] = Oral bioavailability in human at 2 mg administered as single dose and measured up to 168 hrs; format: ADME, organism-based; settings: in vivo
# [18] = Half life in human at 0.25 mg, iv administered as single dose measured up to 168 hrs; format: ADME, organism-based; settings: in vivo
# [19] = Drug metabolism in human; format: ADME; settings: read-out: Drug metabolism
# T1 sequence (P0A6B4 whole entry): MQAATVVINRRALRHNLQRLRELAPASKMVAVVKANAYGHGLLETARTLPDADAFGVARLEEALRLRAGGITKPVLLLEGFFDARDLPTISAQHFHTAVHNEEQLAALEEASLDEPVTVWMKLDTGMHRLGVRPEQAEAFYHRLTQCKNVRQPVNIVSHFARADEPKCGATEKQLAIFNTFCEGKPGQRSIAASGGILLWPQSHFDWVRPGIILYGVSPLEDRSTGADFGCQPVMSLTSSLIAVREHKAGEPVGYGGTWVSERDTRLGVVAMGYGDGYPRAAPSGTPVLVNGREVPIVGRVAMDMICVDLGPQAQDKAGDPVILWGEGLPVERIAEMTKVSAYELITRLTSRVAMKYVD
compound,measurement,setting,value
O=C1c2ccccc2C(Cc2ccnc(F)c2)(Cc2ccnc(F)c2)c2ccccc21,Activity,[1],0.5%
same,degraded,[2],< 0.1%
C=C=C(/N=C/c1c(COP(=O)(O)O)cnc(C)c1O)C(=O)O,Activity,[3],57%
same,Activity,[4],31%
same,Activity,[5],12%
CC(C)C(=O)OCCOCn1cnc2c(F)nc(N)nc21,Drug recovery,[6],51%
N[C@@H](Cc1c[nH]c2cc(C(F)F)ccc12)C(=O)O,K,[7],0.0039 min⁻¹
CCNC(C)Cc1cccc(SC(F)(F)F)c1 (racemic) [TIFLOREX],half-life,[8],7.4 h
COc1cc(F)c(C(C)C)cc1-c1ccc(C(F)(F)F)cc1CN1C(=O)O[C@H](c2cc(C(F)(F)F)cc(C(F)(F)F)c2)[C@@H]1C [ANACETRAPIB],Vd,[9],1.1 L/kg
same,Vd,[10],0.3 L/kg
same,Drug recovery,[11],90%
same,logD,[12],7.1
same,Drug recovery,[13],80%
Cc1cc(Nc2ccc(S(F)(F)(F)(F)F)cc2)n2nc(C(C)(F)F)nc2n1 [DSM-265],half-life,[14],86 to 118 h
CNCCC(Oc1ccc(C(F)(F)F)cc1)c1ccccc1 (centres undefined) [FLUOXETINE],half-life at 10 µM,[15],55.2 h
C[C@@H]1C[C@H]2[C@@H]3C[C@H](F)C4=CC(=O)C=C[C@]4(C)[C@@]3(F)[C@@H](O)C[C@]2(C)[C@@]1(OC(=O)c1ccco1)C(=O)SCF [FLUTICASONE FUROATE],Vd,[16],642 L
same,bioavailability,[17],1.6%
same,half-life,[18],15.3 h
FCOC(C(F)(F)F)C(F)(F)F [SEVOFLURANE],metabolised,[19],2 to 5%
